Experimental data from patent US10246455B2, “Histone deacetylase inhibitors” (Taipei Medical University, priority 2014, dated 2019).

What was measured:
[1] = biological target: HDAC6 (Homo sapiens, UniProt Q9UBN7); assay: Deacetylase enzyme assay (fluorescence release): HDAC6; assay type: biochemical; settings: 24-hour study
From the text: (§1) Proteins from cells were extracted and subjected to the western blotting analysis. β-Actin was used as an internal control. The deacetylase enzyme assay was based on a homogeneous fluorescence release assay. […] After fluorophore from the deacetylated substrates, fluorescent signal was detected.

[2] = system: histone and α-tubulin acetylation in human BJAB B cell lymphoma; assay: Western blot: acetylation in BJAB cells; assay type: cell-based
Experimental: (§2) More specifically, cells in the logarithmic phase were initially seeded at a density of 1×10^6 in 100 mm^2 dishes. […] Briefly, cells were lysed with the cell lysis reagent CelLytic™ M (Sigma-Aldrich) containing 1 mM DTT, 1 mM PMSF and protease inhibitors for whole-cell lysate preparation. Equal amounts of lysate (on a protein basis) were then differentiated using the SDS-PAGE, blotted on PVDF membranes, conjugated with various specific primary antibodies, and then probed with appropriate secondary antibodies. The immunoreactive bands were detected using the ECL method and visualized on Kodak Bio-MAX MR film.
as §1

[3] = system: histone and α-tubulin acetylation in MDA-MD-231 breast carcinoma; assay: Western blot: acetylation in MDA-MD-231 cells; assay type: cell-based, human
Experimental: as §2, §1

[4] = system: K2 (normal: keratinocyte); assay: IC50 against cell lines: K2; settings: Homo sapiens, read-out: IC50 ± SD against human cancer cell lines
[5] = system: WI-38 (normal: lung); assay: IC50 against cell lines: WI-38; settings: Homo sapiens, WI-38, read-out: IC50 ± SD against human cancer cell lines
[6] = system: RWPE-1 (normal: prostate); assay: IC50 against cell lines: RWPE-1; settings: Homo sapiens, RWPE-1, read-out: IC50 ± SD against human cancer cell lines
[7] = system: Detroit551 (normal: fibroblast); assay: IC50 against cell lines: Detroit551; settings: Homo sapiens, Detroit 551, read-out: IC50 ± SD against human cancer cell lines
[8] = system: H9 (T cell lymphoma); assay: IC50 against human cancer cell lines: H9; settings: read-out: IC50 ± SD against human cancer cell lines
[9] = system: BJAB (B cell lymphoma); assay: IC50 against human cancer cell lines: BJAB; settings: read-out: IC50 ± SD against human cancer cell lines
[10] = system: KB-7D (KB resistant); assay: IC50 against human cancer cell lines: KB-7D; settings: KB7D, read-out: IC50 ± SD against human cancer cell lines
Experimental: (§3) More specifically, the IC50 values of test compounds were determined by carrying out a fluorimetric histone deacetylase assay following the manufacturer's instructions. For a pan-HDAC assay, HeLa nuclear extracts were used as a source of histone deacetylase (BioVision Inc.). Histone deacetylase isomer inhibition assays were conducted using purified recombinant histone deacetylase proteins of the various isomers (BPS Bioscience Inc.). Reactions were performed in 0.1 mol/L KCl, 20 mmol/L HEPES/NaOH at pH 7.9, 20% glycerol, 0.2 mmol/L DTA, 0.5 mmol/L DTT, and 0.5 mmol/L phenylmethylsulfonylfluoride. […] Reactions were carried out in triplicate for each test compound. Each point represented the mean±SD of replicates.

[11] = system: KB-VIN10 (KB resistant); assay: IC50 against human cancer cell lines: KB-VIN10; settings: Homo sapiens, KB-VIN10, read-out: IC50 ± SD against human cancer cell lines
[12] = system: LNCaP-R2 (prostate carcinoma); assay: IC50 against human cancer cell lines: LNCaP-R2; settings: read-out: IC50 ± SD against human cancer cell lines
[13] = system: HDAC1-10; assay: SDS-PAGE and western blot analysis: HDAC1-10 in PC3 cells; assay type: cell-based, human; settings: 48 hours
Experimental: More specifically, cells in the logarithmic phase were initially seeded at a density of 1×10^6 in 100 mm^2 dishes. […] IC50 indicia of compound in vitro potency) for the indicated times (i.e., 24 and 48 hours), adherent cells were collected for protein extract preparation. Briefly, cells were lysed with the cell lysis reagent CelLytic™ M (Sigma-Aldrich) containing 1 mM DTT, 1 mM PMSF and protease inhibitors for whole-cell lysate preparation. Equal amounts of lysate (on a protein basis) were then differentiated using the SDS-PAGE, blotted on PVDF membranes, conjugated with various specific primary antibodies, and then probed with appropriate secondary antibodies. The immunoreactive bands were detected using the ECL method and visualized on Kodak Bio-MAX MR film. Proteins from cells were extracted and subjected to the western blotting analysis. β-Actin was used as an internal control. The deacetylase enzyme assay was based on a homogeneous fluorescence release assay. […] After fluorophore from the deacetylated substrates, fluorescent signal was detected.

[14] = system: C6 glioma cell line; assay: Cell proliferation in C6 glioma in vitro (MTT); assay type: cell-based; settings: rat C6 glioma
From the text: C6 glioma cell line was obtained from American Type Culture Collection.

[15] = system: HDACs (p21, p27, histone, and α-tubulin acetylation) in the PC3 xenograft model; assay: In vivo HDAC inhibitory assay, PC3 xenograft; settings: 25 mg/kg, oral, PC3 xenograft mice
Experimental: Subcutaneous inoculation of 5×10^6 PC3 cells in specific pathogen-free male athymic mice (strain BALB/cAnN.Cg-Foxn1nu/CrlNarl) from the National Laboratory Animal Center, Taiwan, was applied. The mice were subsequently fed under specific pathogen-free conditions and provided with sterile water and food. […] Tumor samples were obtained and frozen in liquid nitrogen before storage in −80° C. Tumor proteins were extracted and subjected to the Western blotting analysis. β-Actin was used as an internal control.

[16] = system: human colorectal HCT116 xenograft; assay: In vivo antitumor activity assay, HCT116 xenograft; settings: for inhibition of human colorectal HCT116 xenograft growth: day 22 after the first dosing
From the text: The antitumor effect of the two test compounds were examined in mice xenografted with human PC3 prostate cancer cells or HCT116 colorectal cells.
Five million PC3 cells were subcutaneously inoculated into specific pathogen-free male athymic mice (strain BALB/cAnN.Cg-Foxn1nu/CrlNarl) from the National Laboratory Animal Center, Taiwan. Mice were subsequently fed under specific pathogen-free conditions and provided with sterile water and food. When the tumor volume reached 150 to 200 mm^3, mice were assigned to groups randomly and treated with vehicle control or Compound 7 or 5b at 25/50/100 mg/kg. The compound was administered once a day, 5 days/week for 2 weeks (n=6) by oral administration. Tumor volume and body weight change were measured twice a week. At the end of the experiments (day 25 after first dosing), animals were euthanized in a CO2-containing chamber, and the tumors were collected and fixed in formaldehyde. The terminal deoxynucleotidyl transferase-mediated dUTP nick end labeling assay (TUNEL) was conducted for apoptosis detection. Tumor tissue sections were analyzed using a FITC In Situ Cell death detection kit (Roche) and fluorescence microscopy. Tissue treated with DNase was used as the positive control. Green fluorescence labeled nucleus indicates the induction of DNA fragmentation.

[17] = system: human glioblastoma (U87-MG-LucNeo cells) xenograft; assay: Orthotopic tumor size measurement (bioluminescence imaging); assay type: in vivo, mice; settings: Compound 7 25 mg/kg versus SAHA 150 mg/kg and TMZ 25 mg/kg
From the text: Another parallel set of xenografted nude mice treated with drug or vehicle treatment as described above were used in this experiment.

[18] = system: MKN-45 (gastric carcinoma); assay: IC50 in human cancer cell lines (inhibiting HDAC): MKN-45; settings: MKN-45, read-out: IC50, inhibiting HDAC in human cancer cell lines
Experimental: as §3

Chain of HDAC6 (Q9UBN7 whole entry, species assumed): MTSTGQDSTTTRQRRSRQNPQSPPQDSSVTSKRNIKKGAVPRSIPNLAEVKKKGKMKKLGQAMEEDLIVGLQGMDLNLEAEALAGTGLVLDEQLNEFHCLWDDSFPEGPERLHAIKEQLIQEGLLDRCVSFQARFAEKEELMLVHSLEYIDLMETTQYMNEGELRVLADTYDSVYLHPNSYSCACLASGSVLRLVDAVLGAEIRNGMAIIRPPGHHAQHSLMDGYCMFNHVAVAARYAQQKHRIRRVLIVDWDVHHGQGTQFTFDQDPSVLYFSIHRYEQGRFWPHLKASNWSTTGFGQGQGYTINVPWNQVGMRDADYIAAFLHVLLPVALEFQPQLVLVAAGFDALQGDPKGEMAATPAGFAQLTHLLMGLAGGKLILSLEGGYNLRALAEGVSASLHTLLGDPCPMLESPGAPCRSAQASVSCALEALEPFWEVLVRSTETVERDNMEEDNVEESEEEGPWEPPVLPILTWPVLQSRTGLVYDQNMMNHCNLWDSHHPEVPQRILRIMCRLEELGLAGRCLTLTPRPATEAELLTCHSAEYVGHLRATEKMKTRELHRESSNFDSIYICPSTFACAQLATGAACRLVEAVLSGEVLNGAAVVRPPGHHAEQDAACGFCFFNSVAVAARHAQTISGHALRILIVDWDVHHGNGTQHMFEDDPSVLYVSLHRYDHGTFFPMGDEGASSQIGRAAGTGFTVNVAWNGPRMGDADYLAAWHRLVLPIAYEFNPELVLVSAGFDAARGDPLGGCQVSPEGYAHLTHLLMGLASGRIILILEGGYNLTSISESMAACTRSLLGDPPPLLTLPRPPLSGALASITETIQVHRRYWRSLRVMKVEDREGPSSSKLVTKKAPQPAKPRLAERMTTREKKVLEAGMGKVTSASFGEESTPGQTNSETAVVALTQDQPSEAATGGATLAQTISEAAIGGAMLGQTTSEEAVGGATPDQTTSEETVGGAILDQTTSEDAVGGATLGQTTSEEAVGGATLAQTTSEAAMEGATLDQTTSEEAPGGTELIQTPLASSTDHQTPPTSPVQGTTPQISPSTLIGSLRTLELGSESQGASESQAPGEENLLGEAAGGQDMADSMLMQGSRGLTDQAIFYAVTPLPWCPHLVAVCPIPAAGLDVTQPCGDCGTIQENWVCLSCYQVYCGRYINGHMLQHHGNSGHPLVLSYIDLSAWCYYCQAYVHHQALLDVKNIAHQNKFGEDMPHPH

Which results are given for `COc1ccc(S(=O)(=O)N2CCc3cc(/C=C/C(=O)NO)cnc32)cc1` [Compound 5b, (E)-N-hydroxy-3-(1-(4-methoxyphenylsulfonyl)-2,3-dihydro-1H-pyrrolo[2,3-b]pyridin-5-yl)acrylamide]?
concentration inducing inhibition of HDAC6 [1]: about 100 nM; histone and α-tubulin acetylation [2]: induced histone and α-tubulin acetylation; histone and α-tubulin acetylation [3]: induced histone and α-tubulin acetylation; IC50 [4]: 447 ± 37.3 nM; IC50 [5]: 272 ± 52.3 nM; IC50 [6]: 240 ± 108 nM; IC50 [7]: 707 ± 64.7 nM; IC50 [8]: 55.4 ± 7.8 nM; IC50 [9]: 161 ± 20.3 nM; IC50 [10]: 139 ± 26.8 nM; IC50 [11]: 85 nM; IC50 [12]: 100 ± 40 nM

Which results are given for `O=C(/C=C/c1cccc(S(=O)(=O)n2ccc3cccnc32)c1)NO` [Compound 7, (E)-3-(3-(1H-Pyrrolo[2,3-b]pyridin-1-ylsulfonyl)phenyl)-N-hydroxyacrylamide]?
inhibition of HDAC1-10 activities in PC3 cells [13]: inhibited HDAC1-10 activities in PC3 cells in a concentration-dependent manner; inhibition at 30 µM [14]: ~50%; inhibiting HDACs in vivo (p21, p27, histone, and α-tubulin acetylation) [15]: effective; inhibition of human colorectal HCT116 xenograft growth ([16]; 25 mg/kg): 50-60%; inhibition of human colorectal HCT116 xenograft growth ([16]; 50 mg/kg): 50-60%; inhibition of human colorectal HCT116 xenograft growth ([16]; 100 mg/kg): 50-60%; body weight change ([16]; HCT116 xenograft mice, 25, 50 and 100 mg/kg): without causing much body weight change; tumor size (bioluminescence imaging) [17]: decreased the tumor size more than a higher dose of SAHA (150 mg/kg) or the same dose of TMZ (25 mg/kg); IC50 [18]: 2510 ± 810 nM
